Reference: patent US10537102B2, “Synergistic fungicidal composition for controlling plant diseases” (Sumitomo Chemical Company, Limited, priority 2016, dated 2020)

How the values were obtained:
[1] = test system: Septoria leaf blotch (Mycosphaerella graminicola); assay: Test Example 3: growth of Septoria leaf blotch in YBG medium, microtiter plate, absorbance at 550 nm; assay type: cell-based; details: single use, 18° C., four days
Method: Each of the present compound 1-3 or the present compound 2 was dissolved into dimethyl sulfoxide such that each concentration of these compounds was adjusted to one hundred fifty times as much as the concentration indicated in the below-mentioned Table 3. The resultant agent solution was dispensed into each microtiter plate (with 96 wells) in 1 μl portion thereof per well. 149 μl of YBG medium to which conidia of Septoria leaf blotch (Mycosphaerella graminicola) was inoculated in advance (which was prepared by dissolving 10 g of yeast extract, 10 g of Bacto Peptone, and 20 mL of glycerol into 1 L of water, followed by sterilizing the medium) was dispensed into each of the well to which the agent solution was dispensed. The plate was cultivated at 18° C. for four days, thereby allowing Septoria leaf blotch (Mycosphaerella graminicola) to undergo proliferation, and the absorbance at 550 nm of each well of the microtiter plate was then measured to examine a degree of growth of Septoria leaf blotch (hereinafter referred to as “treated group”).
Whereas, Septoria leaf blotch was proliferated similarly to the case of the treated group except that dimethyl sulfoxide was used instead of the agent solution, and the degree of the growth was examined (hereinafter referred to as “untreated group”). The efficacy was calculated from each of the obtained degree of growth of the treated group and the untreated group respectively by the following “Equation 1”.
Efficacy (%)=100×(X−Y)/X Equation 1
X: Degree of growth of fungus in the untreated group
Y: Degree of growth of fungus in the treated group

[2] = test system: Brown rust (Puccinia recondita); assay: Test Example 4: foliar spray on wheat, Brown rust lesion area; assay type: in vivo, Puccinia recondita on wheat (cultivar. Shirogane); details: single use, flowable, foliar spray one day before inoculation
Method: Five (5) parts of the present compound 1-3, 35 parts of a mixture of white carbon and ammonium polyoxyethylene alkyl ether sulfate (the weight ratio of 1:1) and […] of water were mixed, and the mixture was then finely-ground by a wet grinding method to obtain a flowable comprising the present compound 1-3. Separately, the flowable comprising the present compound 2 was prepared according to the above-mentioned similar method except that the […].
Each of the flowable comprising the present compound 1-3 and the flowable comprising the present compound 2 was diluted with water and if necessary, the resultant dilute solutions were mixed each other such that each concentration of the respective compounds in the dilution solution was adjusted to the concentration indicated in Table 4, to prepare the dilution solutions, respectively.
A plastic pot was filled with soil, and thereto wheat (cultivar. Shirogane) was seeded, and the plants were grown in a greenhouse for ten days. The above-mentioned dilution solutions were sprayed to foliar parts so as to adhere adequately onto the surfaces of leaves of the above wheats. After spraying the dilute solution, the plants were air-dried, and one day after the application, an aqueous suspension of uredospores of Brown rust (Puccinia recondita) was inoculated by spraying thereto. After the inoculation, the plants were placed at 27° C. under humid condition for one day, and were then cultivated under lighting for ten days, and a lesion area was examined (hereinafter referred to as “lesion area of treated group”).
Whereas, wheats were cultivated similarly to the treated group except that no foliage application of the above-mentioned agent solution was done, and Brown rust were inoculated, and the lesion area thereof was examined (hereinafter referred to as “lesion area of the untreated group”).
From each of the lesion area of the treated group and the untreated group, respectively, the efficacy of the treated group was calculated by the following Equation 2.
Efficacy (%)=[1−(lesion area of the treated group)/(lesion area of the untreated group)]×100 Equation 2

| SMILES | Efficacy (%) ([1]; concentration in medium 0.001 ppm) | Efficacy (%) ([2]; concentration in agent solution 0.001 ppm) | Efficacy (%) ([2]; concentration in agent solution 0.02 ppm) | Efficacy (%) ([1]; concentration in medium 0.0001 ppm) | Efficacy (%) ([1]; concentration in medium 0.01 ppm) | Efficacy (%) ([2]; concentration in agent solution 0.002 ppm) | Efficacy (%) ([2]; concentration in agent solution 0.01 ppm) |
| --- | --- | --- | --- | --- | --- | --- | --- |
| CC1CC(C)(C)c2c(F)ccc(NC(=O)c3cn(C)nc3C(F)F)c21 (stereo not shown) [Present compound 2] | 20 | 15 | 55 | – | – | – | – |
| Cc1cccc(-n2nnn(C)c2=O)c1COc1ccn(-c2ccc(Cl)cc2)n1 [Present compound 1-3, 1-(2-{[1-(4-chlorophenyl)-1H-pyrazol-3-yl]oxymethyl}-3-methylphenyl)-4-methyl-1,4-dihydrotetrazol-5-one] | – | – | – | 20 | 37 | 35 | 70 |
